Biological target: T1, Human recombinant MetAP2 (Homo sapiens, UniProt P50579)
T1 construct: made in house; host or cells: Sf9 insect cells
Experiment: recombinant human MetAP2 inhibition assay (MAS substrate, amino acid oxidase/Amplex red fluorescence)
Type: biochemical
Conditions: manganese enzyme, 30 minutes at 25° C., pH 7.5, 0.75 mM MAS substrate, 1% DMSO
Method: Compounds are tested for their capacity to inhibit recombinant human MetAP2 activity using the following assay.
Human recombinant MetAP2 expressed in Sf9 cells followed by affinity purification and EDTA treatment to remove endogenous active site cation was dialysed against MnCl2 to produce the manganese enzyme used in the assay. The assay was carried out for 30 minutes at 25° C. in 50 mM HEPES buffer containing 100 mM NaCl, at pH 7.5. The presence of 0.75 mM Methionine-Alanine-Serine (MAS) substrate and 50 μg/mL amino acid oxidase using a dilution of purified MetAP2 gives >3-fold signal:noise. Cleavage of the substrate by MetAP2 and oxidation of free methionine by amino acid oxidase was detected and quantified using fluorescence generated by Amplex red (10-acetyl-3,7-dihydroxyphenoxazine) in combination with horseradish peroxidase which detects H2O2 released during the oxidation step. The fluorescent signal was detected using a multiwell fluorimeter. Compounds were diluted in DMSO prior to addition to assay buffer, the final DMSO concentration in the assay being 1%.
The IC50 is defined as the concentration at which a given compound achieves 50% inhibition of control. IC50 values are calculated using the XLfit software package (version 2.0.5).

T1 sequence (P50579 whole entry): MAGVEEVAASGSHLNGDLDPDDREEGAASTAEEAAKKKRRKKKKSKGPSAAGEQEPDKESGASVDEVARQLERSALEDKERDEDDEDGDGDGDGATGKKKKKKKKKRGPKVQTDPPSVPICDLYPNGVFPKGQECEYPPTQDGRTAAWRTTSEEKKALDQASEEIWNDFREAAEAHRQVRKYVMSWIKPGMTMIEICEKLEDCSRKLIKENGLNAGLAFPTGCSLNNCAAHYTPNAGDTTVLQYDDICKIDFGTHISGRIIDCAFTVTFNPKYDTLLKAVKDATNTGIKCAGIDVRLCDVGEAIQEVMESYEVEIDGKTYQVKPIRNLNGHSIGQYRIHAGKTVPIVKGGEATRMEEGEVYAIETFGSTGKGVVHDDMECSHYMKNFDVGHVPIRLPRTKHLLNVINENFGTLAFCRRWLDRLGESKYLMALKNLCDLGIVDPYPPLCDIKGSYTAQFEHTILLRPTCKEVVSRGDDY

IC50 | Structure (SMILES)
> 0.1 µM | CCN(CC)C/C=C\c1cc(F)ccc1S(=O)(=O)Cc1ccc2c(c1C(=O)O)OC[C@H]1C[C@@H]21 (racemic) [Example 1, Cis-(1aRS,7bSR)-5-[2-((Z)-3-diethylaminoprop-1-enyl)-4-fluoro-benzenesulfonylmethyl]-1,1a,2,7b-tetrahydrocyclopropa[c]chromene-4-carboxylic acid]
> 0.1 µM | CCN(CC)C/C=C\c1cc(F)ccc1S(=O)(=O)Cc1ccc2c(c1C(=O)O)OC[C@@H]1C[C@H]21 [Example 2]

From patent US9440943B2, “Tricyclic sulfone compounds and methods of making and using same” (Zafgen, Inc., priority 2012, dated 2016)
